Results published in ChEMBL document CHEMBL1136364, “Synthesis and antimalarial activity of 2-methoxyprop-2-yl peroxides derivatives” (Bioorg Med Chem Lett, 2003).
pIC50: −log10 of the molar value.

system: Plasmodium falciparum; assay: In vitro antimalarial activity against Plasmodium falciparum FCR3; format: functional, organism-based

| Structure (SMILES) | pIC50 |
| --- | --- |
| COC(C)(C)OOCCC1=CC[C@H]2C[C@@H]1C2(C)C | 6.43 |
| CCCCCCCCCCCCCCCCCCOOC(C)(C)OC | 5.88 |
| CCCCCCCCOOC(C)(C)OC | 5.59 |
| CCCCCCCCCCCCCCCCOOC(C)(C)OC | 6.36 |
| COCCOOC(C)(C)OC | 5.49 |
| CO[C@H]1O[C@@H]2O[C@@]3(C)CC[C@H]4[C@H](C)CC[C@@H]([C@H]1C)[C@@]24OO3 [ARTEMETHER] | 7.85 |
| COC(C)(C)OOCCCCC1=CC[C@H]2C[C@@H]1C2(C)C | 6.32 |
| COC(C)(C)OOCCCc1ccccc1 | 6.18 |
| C[C@@H]1CC[C@H]2[C@@H](C)C(=O)O[C@@H]3O[C@@]4(C)CC[C@@H]1[C@]32OO4 [ARTEMISININ] | 7.26 |
| CCCCCCCOOC(C)(C)OC | 6.10 |
| CCOC(=O)CCCOOC(C)(C)OC | 5.16 |
| COC(C)(C)OOCCCC1=CC[C@H]2C[C@@H]1C2(C)C | 6.22 |
| COC(C)(C)OOCCc1ccccc1 | 6.28 |
| COC(C)(C)OOCCCOc1ccccc1 | 6.06 |
| COC(C)(C)OOCCC(C)C | 5.78 |
| CCCCCCOOC(C)(C)OC | 5.81 |
| COC(C)(C)OOCCCC#N | 4.89 |
| CCCCCCCCCCCCOOC(C)(C)OC | 6.17 |
